# According to US8470333B2, “Chimeric peptides comprising HER-2 B-cell epitopes and T-helper epitopes” (The Ohio State University Research Foundation, priority 2005, dated 2013):
# Positions of bridges follow the written chain, without caps; N, C: chain ends. No end group written: not given here.
# Legend:
# NT2.5 tumor cell line = experiment: NT2.5 tumor challenge in immunized FVB/n mice; assay type: in vivo, mouse; details: for mean tumor volumes at day 30: FVB/n mice, 5×10^6 NT2.5 cells s.c. two weeks after final immunization, data not shown; for doubling time: NT2.5 tumor in vaccinated FVB/N mice
# Description: (§1) The human EGFR disulfide pairings have been defined. Based on the high homology between EGFR and HER-2, the 628-647 epitope to 626-649 to incorporate two disulfide bonds between Cys-626 and Cys-634, and Cys-630 and Cys-642. Differential side chain protection and a specialized deprotection and oxidation successfully generated the cyclized product with a desired secondary structural characteristics as determined by CD measurements. […] Cyclized antibodies elicited twice the level of specific lysis compared to non-cyclized antibodies in an ADCC assay (11 and 5.6% respectively). To investigate the in vivo effect of these peptide vaccines, inbred FVB/N mice were immunized with the constructs. Both constructs were immunogenic in these mice with the cyclized construct generating higher titers. These mice were then challenged with the NT2.5 tumor cell line which has an FVB/N background.
# To better understand the potential clinical benefit associated with introducing conformational constraints into B-cell epitope vaccines, both FVB/n and neu-N transgenic mice were challenged with the tumor cell line NT2.5 derived from a spontaneous mammary tumor isolated from a neu-N transgenic mouse. As a consequence of neu over-expression these mice develop spontaneous mammary adenocarcinomas in a manner similar to that observed in human breast cancer patients, and are therefore a suitable model for human breast cancer studies. […] (lower abdomen) two weeks after final immunization. Tumor measurements were taken twice weekly until day 55. Tumor volumes were calculated by the formula (long measurement×short measurement^2)/2. Note that after day 30 the tumors in FVB/n mice begin to regress, indicative of rejection of the tumor. With subsequent tumor studies using FVB/n mice, tumors were measured to day 30.
# FVB/n mice = experiment: Immunogenicity in FVB/n mice, antibody titers by direct ELISA; assay type: in vivo, mouse
# Procedure: Groups of four to ten FVB/n mice were immunized with linear (NC) or disulfide-bonded (SS) peptide constructs (A) MVF563-598, (B) MVF585-598, (C) MVF597-626, or the linear peptide (D) MVF613-626. Each mouse is represented as an individual bar. Note that the scale in A is different then B-D;
# Direct ELISAs were performed on sera from mice immunized with the cyclized (CYC) and linear (NC) constructs to determine differences in immunogenicity. Antibody titers against the corresponding immunogen were defined as the reciprocal of the highest dilution with absorbance ≧0.2. Each bar represents an individual mouse. Designation on the x-axis represents time at which sera was sampled, e.g. 1y+3 corresponds to serum collected three weeks after the first immunization. Neu-N mice have an FVB/n background and express normal rat neu proto-oncogene under control of a mammary-specific promoter. These mice show tolerance to neu relative to non-transgenic mice (Cancer Research 60, 3569).
# Direct ELISA. U-bottom polyvinyl chloride plastic assay plates were coated with 100 μl of antigen at 2 μg/ml in PBS overnight at 4° C. Nonspecific binding sites were blocked for 1 hour with 200 μl PBS-1% BSA and plates were washed with PBT (phosphate-buffered saline containing 0.05% Tween 20 and 1% horse serum). Rabbit antiserum 1/500 or mouse antiserum 1/50 in PBT was added to antigen coated plates, serially diluted 1:2 in PBT, and incubated 2 hr at room temperature. After washing the plates, 50 μl of 1/500 goat anti-rabbit or goat anti-mouse IgG conjugated to horseradish peroxidase (Pierce Chemical Co.) was added to each well. Excess antibody conjugate was removed, and bound antibody was detected using 50 μl of 0.15% H2O2 in 24 mM citric acid, 5 mM sodium phosphate buffer, pH 5.2, with 0.5 mg/ml […] as the chromophore. Color development was allowed to proceed for 10 min and the reaction was stopped with 25 μl of 1% sodium dodecylsulfate. Absorbance was determined at 410 nm using a Dynatech MR700ELISA reader. Results are expressed as the mean absorbance of duplicate wells after subtraction of background.
# The immunogenicity of the 4 constructs listed in Table 1 was determined using both the disulfide-bonded and linear constructs by immunizing groups of FVB/n mice (n=4-9) 6-8 weeks old. […] Three mice that received the cyclized form of 597-626 had titers above 120,000, while no mouse that received the linear form had titers above 120,000.
# [1] = test system: BT-474 human breast cancer cells (HER-2high); experiment: Flow cytometry of peptide antibodies with BT474 cells; assay type: cell-based
# Procedure: Flow cytometry was used to assess whether antibodies from FVB/n mice induced by various constructs recognize native HER-2. BT-474 human breast cancer cells (HER-2high) were treated with 10 μg/mL of normal mouse Ig (negative control), mouse monoclonal Ab-2 (positive control), or peptide antibodies raised in FVB/n mice.
# (§2) The reactivity of purified antibodies from immunized mouse sera was tested with (A) BT474 and (B) SKBR-3 breast cancer cell lines using flow cytometric analysis. Ab binding was detected with goat-anti mouse FITC-conjugated abs. The x-axis represents fluorescent intensity, and the y-axis represents relative cell number. Each histogram contains an overlay of mouse pre IgG, peptide antibodies, and AB2, a mouse mAb that binds HER-2.
# (§3) Indirect Binding Assay. SKBR3 cells or MCF-7 cells were plated at 5,000 cells/well in V-bottom plates (Linbro, McLean Va.). The cells were incubated with various concentrations of antibodies. […] The cells were analyzed by a Coulter ELITE flow cytometer (Coulter, Hialeah, Fla.), which has an argon laser for excitation at 488 nm, and a 525 run band pass filter for FITC fluorescence 5.0×10^3 cells were counted for each sample and final processing was performed. […]
# [2] = test system: SKBR-3 breast cancer cell line; experiment: Flow cytometry of peptide antibodies with SKBR-3 cells; assay type: cell-based, human; details: purified antibodies from immunized mouse sera, FIG. 13
# Procedure: as §2
# Cell Culture. Stock cultures were maintained at 37° C. in a 5% CO2 incubator. All cell culture media, FCS, and supplements were purchased from GEBCO (Grand Island, N.Y.). The human breast adenocarcinoma cell lines SKBR-3 and MCF-7 were obtained from the American Type Culture Collection and was subcultured in McCoy's 5A or DMEM supplemented with 10% FCS and L-glutainine. Cav-1 was maintained in RPMI 1640 with 10% FCS and L-glutamine. […] SKBR3 is a breast tumor cell line which overexpresses the HER-2 protein while MCF-7 expresses the normal concentration of protein.
# as §3, with “Va.).” for “Va.). The cells were incubated with various concentrations of antibodies.”
# trastuzumab = experiment: ELISA binding of trastuzumab to peptides; details: FIG. 4
# Procedure: The peptide sequences are given on the x-axis. MVF316-339 is an Her-2 irrelevant control peptide;
# Microtiter wells were coated overnight with 2 μg/ml of various peptides and then blocked with 1% BSA for one hour. […] Values shown are the mean of duplicate samples. SEM are indicated by error bars.
# HER-2 protein = biological target: T1, HER-2 protein (Homo sapiens, UniProt P04626); experiment: Flow cytometry binding of anti-peptide antibodies to HER-2 protein (Example 1); assay type: cell-based; details: antibodies against the epitope; flow cytometry binding to HER-2 protein
# T1 construct: endogenous in cells; host or cells: SKBR3 or MCF-7 according to the general method
# Procedure: Indirect Binding Assay. SKBR3 cells or MCF-7 cells were plated at 5,000 cells/well in V-bottom plates (Linbro, McLean Va.). The cells were incubated with various concentrations of antibodies. After being washed with Hank's Balanced Salts Solution (HBSS) the cells were incubated for one hour with fluorescein isothiocyanate (FITC)-conjugated goat anti-rabbit or goat anti-mouse antibody and fixed with formalin. A mouse monoclonal Ab (Oncogene Science, Cambridge, Mass.) was used as the positive control and an anti-CD3 Ab as the negative control. The cells were analyzed by a Coulter ELITE flow cytometer (Coulter, Hialeah, Fla.), which has an argon laser for excitation at 488 nm, and a 525 run band pass filter for FITC fluorescence 5.0×10^3 cells were counted for each sample and final processing was performed. Debris, cell clusters and dead cells were gated out by light scatted assessment before single parameter histograms were drawn.
# The human EGFR disulfide pairings have been defined. Based on the high homology between EGFR and HER-2, the 628-647 epitope to 626-649 to incorporate two disulfide bonds between Cys-626 and Cys-634, and Cys-630 and Cys-642. Differential side chain protection and a specialized deprotection and oxidation successfully generated the cyclized product with a desired secondary structural characteristics as determined by CD measurements. […]
# [3] = test system: cells overexpressing HER-2; experiment: Anchorage-independent growth assay; assay type: cell-based; details: antibodies against the epitope
# effector human PBMCs = experiment: IFN-γ release in the presence of effector human PBMCs; assay type: cell-based; details: antibodies against the construct
# ADCC assay (Example 1) = assay type: cell-based; details: antibodies against the epitope
# Description: as §1
# [4] = by day 33, compared to both unimmunized and MVF immunized mice
substance,measurement,setting,value
KLLSLIKGVIVHRLEGVE-GPSL-VACAHYKDPPFCVA (KLLSLIKGVIVHRLEGVEGPSLVACAHYKDPPFCVA; disulfide 25-34 (inferred)) [MVF 585 SS],tumor volume,NT2.5 tumor cell line; [4],reduction in tumor volume
KLLSLIKGVIVHRLEGVE-GPSL-IWKFPDEEGACQPL (KLLSLIKGVIVHRLEGVEGPSLIWKFPDEEGACQPL) [MVF 613],immunogenicity,"FVB/n mice; FVB/n mice, Example 3, FIG. 3",highly immunogenic
same,tumor volume,NT2.5 tumor cell line; [4],reduction in tumor volume
same,shift in flow cytometry,"[1]; FVB/n purified antibodies, FIG. 5",shifted relative to normal mouse antibodies
same,recognition of HER-2,"[1]; purified antibodies from immunized mouse sera, FIG. 13",recognize HER-2
same,recognition of HER-2,[2],recognize HER-2
KLLSLIKGVIVHRLEGVE-GPSL-CHPECQPQNGSVTCFGPEADQCVACAHYKDPPFCVA (KLLSLIKGVIVHRLEGVEGPSLCHPECQPQNGSVTCFGPEADQCVACAHYKDPPFCVA; disulfide (positions not given here)) [MVF 563 SS],immunogenicity,"FVB/n mice; FVB/n mice, Example 3, FIG. 3",highly immunogenic
same,titers,"FVB/n mice; two mice of the group, three weeks after the third immunization","above 250,000"
same,mean tumor volumes at day 30,NT2.5 tumor cell line; listed as 563-598 SS,173.7292 mm^3
same,binding to trastuzumab,trastuzumab,Maximum binding
"KLLSLIKGVIVHRLEGVE [MVF control peptide, reference compound]",doubling time,NT2.5 tumor cell line,4.48 days
KLLSLIKGVIVHRLEGVE-GPSL-CPINCTHSCVDLDDKGCPAEQRAS [626-649 linear],immunogenicity,"FVB/n mice; inbred FVB/N mice, Example 1",immunogenic
same,mean log fluorescence,HER-2 protein,1.65
same,inhibition (reduction of growth),[3],58%
same,IFN-γ release,effector human PBMCs,able to elicit IFN-γ release
same,specific lysis,ADCC assay (Example 1),5.6%
same,doubling time,NT2.5 tumor cell line,4.31 days
KLLSLIKGVIVHRLEGVE-GPSL-CPINCTHSCVDLDDKGCPAEQRAS [626-649 cyclized],immunogenicity,"FVB/n mice; inbred FVB/N mice, Example 1",higher titers
same,mean log fluorescence,HER-2 protein,2.29
same,inhibition (reduction of growth),[3],31%
same,IFN-γ release,effector human PBMCs,able to elicit IFN-γ release
same,higher levels of IFN-γ compared to the linear antibodies,effector human PBMCs,25%
same,specific lysis,ADCC assay (Example 1),11%
same,doubling time,NT2.5 tumor cell line,6.63 days
same,tumor volume,"NT2.5 tumor cell line; immunized FVB/N mice challenged with NT2.5, compared to linear and control MVF immunized mice",reduction in tumor volume
KLLSLIKGVIVHRLEGVE-GPSL-CHPECQPQNGSVTCFGPEADQCVACAHYKDPPFCVA [563-598 NC],mean tumor volumes at day 30,NT2.5 tumor cell line,166.517 mm^3
KLLSLIKGVIVHRLEGVE-GPSL-LHCPALVTYNTDTFESMPNPEGRYTFGASCV (KLLSLIKGVIVHRLEGVEGPSLLHCPALVTYNTDTFESMPNPEGRYTFGASCV; also: cyclized) [MVF 266 CYC],tumor development and growth,"NT2.5 tumor cell line; wild-type FVB/n mice, 3×106 NT2.5 cells s.c., 24 days, compared to MVF immunized mice only",delayed tumor development (A) and growth (B)
KLLSLIKGVIVHRLEGVE-GPSL-VARCPSGVKPDLSYMPIWKFPDEEGACQPL [597-626 linear],titers,FVB/n mice; no mouse of the group above this value,"≤ 120,000"
